Measurements published in patent publication US20060199870A1, “Method for producing aqueous ortho-phthalaldehyde solutions” (DSM Fine Chemicals Austria Nfg GmbH & Co KG, priority 2005, published 2006).

Assay: Solubility / attainable concentration of OPA in aqueous solution
Assay type: physicochemical
Description: According to the invention, sufficient acetal is introduced into water and dissolved, so that after acidifying, a 0.025 to 9% strength by weight aqueous OPA solution is obtained. Preference is given to 0.05 to 5% strength by weight solutions, particularly preferably 0.5 to 2% strength by weight solutions.
It is advantageous in the inventive method that, compared with the use of OPA itself, more highly concentrated solutions (9% compared with 5%) can be produced, since the alcohol eliminated by the acidification favors the dissolution of the OPA formed.
In addition, if desired, the alcohol being eliminated can be removed from the solution by distilling it off, as a result of which, however, the solubility is reduced again to 5%.

solubility (aqueous solution after the eliminated alcohol is distilled off): 5%
attainable concentration of aqueous OPA solution (solution produced from OPA acetal, alcohol eliminated by the acidification remains in solution): 9%
attainable concentration of aqueous OPA solution (use of OPA itself dissolved in water): 5%
SMILES: O=Cc1ccccc1C=O [OPA, ortho-phthalaldehyde]
